Reference: US8975398B2, “NAMPT inhibitors” (AbbVie Inc., priority 2012, dated 2015)

Key:
[1] = target: NAMPT (human, recombinant, C-terminally His-tagged) (Homo sapiens, UniProt P43490); assay: Time-Resolved Fluorescence Resonance Energy Transfer (TR-FRET) Binding Assay of NAMPT; settings: 6.8 nM NAMPT, 200 nM probe, equilibrated 3 hours, absence of substrates
How it was run: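 Probe displacement measured by TR-FRET (Ex 337 nm; 520/495 nm ratio) after 3 h room-temperature equilibration of compound with 6.8 nM His-tagged human NAMPT, 1 nM Tb-anti-His antibody and 200 nM Oregon Green 488 nicotinamide-site probe, pH 7.5 HEPES buffer, 2% DMSO. Control-normalized data fit four-parameter logistic for IC50.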

[2] = target: NAMPT (Homo sapiens, UniProt P43490); assay: Time-Resolved Fluorescence Resonance Energy Transfer (TR-FRET) Binding Assay of NAMPT with PRPP; settings: 2 nM NAMPT, 2 nM probe, 200 uM PRPP and 2.5 mM ATP, equilibrated 16 hours
Sequence of NAMPT (P43490 whole entry): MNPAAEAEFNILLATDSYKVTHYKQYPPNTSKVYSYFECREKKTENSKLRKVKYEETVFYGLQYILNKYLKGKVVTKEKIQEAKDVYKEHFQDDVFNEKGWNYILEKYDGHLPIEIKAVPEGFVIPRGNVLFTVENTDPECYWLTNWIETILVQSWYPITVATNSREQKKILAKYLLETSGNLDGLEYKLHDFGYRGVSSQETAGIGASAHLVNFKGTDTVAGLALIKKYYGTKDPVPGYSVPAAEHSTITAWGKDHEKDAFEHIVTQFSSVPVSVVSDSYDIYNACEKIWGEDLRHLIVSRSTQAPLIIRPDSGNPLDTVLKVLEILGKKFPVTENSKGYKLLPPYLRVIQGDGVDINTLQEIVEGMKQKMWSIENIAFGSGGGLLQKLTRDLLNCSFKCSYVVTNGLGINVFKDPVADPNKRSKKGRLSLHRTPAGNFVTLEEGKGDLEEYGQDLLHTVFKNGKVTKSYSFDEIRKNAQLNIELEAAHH
How it was run: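 Binding measured by TR-FRET after a 16-hour equilibration meant to permit enzymatic compound modification. Substrates present at 200 uM PRPP and 2.5 mM ATP, with 2 nM enzyme, 2 nM probe, 1 nM Tb-anti-His antibody and 2% DMSO final.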

Sequence of NAMPT (human, recombinant, C-terminally His-tagged) (P43490 whole entry): as above

With `O=C(Nc1ccc(OC2CCN(C(=O)c3ccc(OC(F)(F)F)cc3)CC2)cc1)C1CN(c2cccnn2)C1` [Example 235, 1-(pyridazin-3-yl)-N-[4-({1-[4-(trifluoromethoxy)benzoyl]piperidin-4-yl}oxy)phenyl]azetidine-3-carboxamide] the IC50 [1] was 283 nM and the IC50 [2] was 1.41 nM.

Work on `O=C(Nc1ccc(C2CCN(C(=O)CC[N+](=O)[O-])CC2)cc1)C1CN(c2cccnn2)C1` [Example 336, N-{4-[1-(3-nitropropanoyl)piperidin-4-yl]phenyl}-1-(pyridazin-3-yl)azetidine-3-carboxamide] yielded an IC50 [1] of 77.3 nM and an IC50 [2] of 0.494 nM.

With `O=C(Nc1ccc(OC2CCN(C(=O)c3ccc(F)cc3F)CC2)cc1)C1CN(c2ccnnc2)C1` [Example 284, N-(4-{[1-(2,4-difluorobenzoyl)piperidin-4-yl]oxy}phenyl)-1-(pyridazin-4-yl)azetidine-3-carboxamide] the IC50 [1] was 62.4 nM and the IC50 [2] was 38.2 nM.

`CCC(C)(C)C(=O)N1CCC(Oc2ccc(NC(=O)C3CN(c4cccnc4)C3)cc2)CC1` [Example 40, N-(4-{[1-(2,2-dimethylbutanoyl)piperidin-4-yl]oxy}phenyl)-1-(pyridin-3-yl)azetidine-3-carboxamide] gave an IC50 [1] of 42.8 nM and an IC50 [2] of 0.49 nM.

`Cc1ncccc1N1CC(C(=O)Nc2ccc(C3CCN(C(=O)C4CCCCC4)CC3)cc2)C1` [Example 196, N-{4-[1-(cyclohexylcarbonyl)piperidin-4-yl]phenyl}-1-(2-methylpyridin-3-yl)azetidine-3-carboxamide] showed an IC50 [1] of 83.8 nM and an IC50 [2] of 98.5 nM.

Work on `CN(C)CCC(=O)N1CCC(Oc2ccc(NC(=O)C3CN(c4cccnc4)C3)cc2)CC1` [Example 67, N-(4-{[1-(N,N-dimethyl-beta-alanyl)piperidin-4-yl]oxy}phenyl)-1-(pyridin-3-yl)azetidine-3-carboxamide] yielded an IC50 [1] of 452 nM and an IC50 [2] of 0.497 nM.

In the case of `Cc1ncccc1N1CC(C(=O)Nc2ccc(C3CCN(C(=O)c4ccco4)CC3)cc2)C1` [Example 189, N-{4-[1-(furan-2-ylcarbonyl)piperidin-4-yl]phenyl}-1-(2-methylpyridin-3-yl)azetidine-3-carboxamide], the IC50 [1] is reported as 6.91 nM and the IC50 [2] is reported as 26.9 nM.

With `CC(C)(C)CC(=O)N1CC(Oc2ccc(NC(=O)C3CN(c4ccnnc4)C3)cc2)C1` [Example 254, N-(4-{[1-(3,3-dimethylbutanoyl)azetidin-3-yl]oxy}phenyl)-1-(pyridazin-4-yl)azetidine-3-carboxamide] the IC50 [1] was 33.9 nM and the IC50 [2] was 11.2 nM.

`Cc1ncccc1N1CC(C(=O)Nc2ccc(C3CCN(C(=O)c4cc(Cl)cc(Cl)c4)CC3)cc2)C1` [Example 154, N-{4-[1-(3,5-dichlorobenzoyl)piperidin-4-yl]phenyl}-1-(2-methylpyridin-3-yl)azetidine-3-carboxamide] gave an IC50 [1] of 524 nM and an IC50 [2] of 16.1 nM.

`CC(C)CC(=O)N1CCC(c2ccc(NC(=O)C3CN(c4cccnn4)C3)cc2)CC1` [Example 320, N-{4-[1-(3-methylbutanoyl)piperidin-4-yl]phenyl}-1-(pyridazin-3-yl)azetidine-3-carboxamide] showed an IC50 [1] of 26.4 nM and an IC50 [2] of 0.611 nM.

`O=C(Nc1ccc(C2CCN(C(=O)CC3CCCC3)CC2)cc1)[C@H]1CCN(c2cccnc2)C1` [Example 204, (3S)—N-{4-[1-(cyclopentylacetyl)piperidin-4-yl]phenyl}-1-(pyridin-3-yl)pyrrolidine-3-carboxamide] was tested, and the IC50 [1] was 380 nM and the IC50 [2] was 2.76 nM.

In the case of `O=C(Nc1ccc(OC2CCN(C(=O)C3CCOCC3)CC2)cc1)C1CN(c2cccnn2)C1` [Example 214, 1-(pyridazin-3-yl)-N-(4-{[1-(tetrahydro-2H-pyran-4-ylcarbonyl)piperidin-4-yl]oxy}phenyl)azetidine-3-carboxamide], the IC50 [1] is reported as 165 nM and the IC50 [2] is reported as 0.841 nM.

`CC(C)CCC(=O)N1CCC(Oc2ccc(NC(=O)C3CN(c4cccnc4)C3)cc2)CC1` [Example 37, N-(4-{[1-(4-methylpentanoyl)piperidin-4-yl]oxy}phenyl)-1-(pyridin-3-yl)azetidine-3-carboxamide] gave an IC50 [1] of 68.9 nM and an IC50 [2] of 0.983 nM.

For `O=C(Nc1ccc(OC2CCN(C(=O)CC(F)(F)F)CC2)cc1)C1CN(c2cccnc2)C1` [Example 55, 1-(pyridin-3-yl)-N-(4-{[1-(3,3,3-trifluoropropanoyl)piperidin-4-yl]oxy}phenyl)azetidine-3-carboxamide], the IC50 [1] was 168 nM and the IC50 [2] was 2.22 nM.

In the case of `CCCC(=O)N1CCC(c2ccc(NC(=O)C3CN(c4cccnc4C)C3)cc2)CC1` [Example 194, N-[4-(1-butanoylpiperidin-4-yl)phenyl]-1-(2-methylpyridin-3-yl)azetidine-3-carboxamide], the IC50 [1] is reported as 122 nM and the IC50 [2] is reported as 62.6 nM.

With `Cc1ccc(C(=O)N2CCC(c3ccc(NC(=O)C4CN(c5cccnn5)C4)cc3)CC2)c(C)c1` [Example 358, N-{4-[1-(2,4-dimethylbenzoyl)piperidin-4-yl]phenyl}-1-(pyridazin-3-yl)azetidine-3-carboxamide] the IC50 [1] was 15.9 nM and the IC50 [2] was 0.815 nM.

`Cc1ncccc1N1CC(C(=O)Nc2ccc(C3CCN(C(=O)C(C)(C)C)CC3)cc2)C1` [Example 185, N-{4-[1-(2,2-dimethylpropanoyl)piperidin-4-yl]phenyl}-1-(2-methylpyridin-3-yl)azetidine-3-carboxamide] gave an IC50 [1] of 81.3 nM and an IC50 [2] of 44.1 nM.

Work on `O=C(Nc1ccc(C2CCN(C(=O)CN3CCCC3)CC2)cc1)C1CN(c2cccnc2)C1` [Example 105, 1-(pyridin-3-yl)-N-{4-[1-(pyrrolidin-1-ylacetyl)piperidin-4-yl]phenyl}azetidine-3-carboxamide] yielded an IC50 [1] of 296 nM and an IC50 [2] of 0.244 nM.

For `Cc1ncccc1N1CC(C(=O)Nc2ccc(C3CCN(C(=O)CN4CCOCC4)CC3)cc2)C1` [Example 164, 1-(2-methylpyridin-3-yl)-N-{4-[1-(morpholin-4-ylacetyl)piperidin-4-yl]phenyl}azetidine-3-carboxamide], the IC50 [1] was 987 nM and the IC50 [2] was 124 nM.

`O=C(Nc1ccc(C2CCN(C(=O)Cc3ccccc3Cl)CC2)cc1)C1CN(c2cccnn2)C1` [Example 369, N-(4-{1-[(2-chlorophenyl)acetyl]piperidin-4-yl}phenyl)-1-(pyridazin-3-yl)azetidine-3-carboxamide] gave an IC50 [1] of 18.3 nM and an IC50 [2] of 0.479 nM.

With `O=C(Nc1ccc(OC2CCN(C(=O)CC(F)(F)F)CC2)cc1)C1CN(c2ccnnc2)C1` [Example 268, 1-(pyridazin-4-yl)-N-(4-{[1-(3,3,3-trifluoropropanoyl)piperidin-4-yl]oxy}phenyl)azetidine-3-carboxamide] the IC50 [1] was 119 nM and the IC50 [2] was 42.1 nM.

In the case of `Cc1ccsc1C(=O)N1CCC(c2ccc(NC(=O)C3CN(c4cccnc4C)C3)cc2)CC1` [Example 171, 1-(2-methylpyridin-3-yl)-N-(4-{1-[(3-methylthiophen-2-yl)carbonyl]piperidin-4-yl}phenyl)azetidine-3-carboxamide], the IC50 [1] is reported as 19.7 nM and the IC50 [2] is reported as 37.9 nM.

`CC(C)Cn1cc(-c2ccc(NC(=O)C3CN(c4ccnnc4)C3)cc2)cn1` [Example 148, N-{4-[1-(2-methylpropyl)-1H-pyrazol-4-yl]phenyl}-1-(pyridazin-4-yl)azetidine-3-carboxamide] gave an IC50 [1] of 42.9 nM and an IC50 [2] of 20.1 nM.

With `O=C(Nc1ccc(C2CCN(C(=O)CC3CCOCC3)CC2)cc1)C1CN(c2cccnc2)C1` [Example 25, 1-(pyridin-3-yl)-N-{4-[1-(tetrahydro-2H-pyran-4-ylacetyl)piperidin-4-yl]phenyl}azetidine-3-carboxamide] the IC50 [1] was 28.1 nM and the IC50 [2] was 0.598 nM.

With `CCC(C)C(=O)N1CCC(c2ccc(NC(=O)C3CN(c4cccnn4)C3)cc2)CC1` (centres unmarked) [Example 319, N-{4-[1-(2-methylbutanoyl)piperidin-4-yl]phenyl}-1-(pyridazin-3-yl)azetidine-3-carboxamide] the IC50 [1] was 24.9 nM and the IC50 [2] was 0.747 nM.

`CC(C)(C(=O)N1CCC(Oc2ccc(NC(=O)C3CN(c4cccnn4)C3)cc2)CC1)c1ccccc1` [Example 217, N-(4-{[1-(2-methyl-2-phenylpropanoyl)piperidin-4-yl]oxy}phenyl)-1-(pyridazin-3-yl)azetidine-3-carboxamide] showed an IC50 [1] of 43.9 nM and an IC50 [2] of 1.51 nM.

`O=C(NC1CN(c2cccnc2)C1)c1ccc(OC2CCN(C(=O)CC3CCOCC3)CC2)cc1` [Example 21, N-[1-(pyridin-3-yl)azetidin-3-yl]-4-{[1-(tetrahydro-2H-pyran-4-ylacetyl)piperidin-4-yl]oxy}benzamide] was tested, and the IC50 [1] was 7380 nM and the IC50 [2] was 0.507 nM.

`O=C(Nc1ccc(C2CCN(C(=O)CC3CCCCC3)CC2)cc1)C1CN(c2cccnn2)C1` [Example 340, N-{4-[1-(cyclohexylacetyl)piperidin-4-yl]phenyl}-1-(pyridazin-3-yl)azetidine-3-carboxamide] was tested, and the IC50 [1] was 17.6 nM and the IC50 [2] was 0.722 nM.

Work on `CCC(C)CC(=O)N1CCC(c2ccc(NC(=O)C3CN(c4cccnc4C)C3)cc2)CC1` (centres unmarked) [Example 160, N-{4-[1-(3-methylpentanoyl)piperidin-4-yl]phenyl}-1-(2-methylpyridin-3-yl)azetidine-3-carboxamide] yielded an IC50 [1] of 74.5 nM and an IC50 [2] of 70.8 nM.

In the case of `C=CCCC(=O)N1CCC(c2ccc(NC(=O)C3CN(c4cccnn4)C3)cc2)CC1` [Example 331, N-{4-[1-(pent-4-enoyl)piperidin-4-yl]phenyl}-1-(pyridazin-3-yl)azetidine-3-carboxamide], the IC50 [1] is reported as 24.9 nM and the IC50 [2] is reported as 0.83 nM.

`CC1(C(=O)N2CCC(Oc3ccc(NC(=O)C4CN(c5cccnc5)C4)cc3)CC2)CC1` [Example 66, N-[4-({1-[(1-methylcyclopropyl)carbonyl]piperidin-4-yl}oxy)phenyl]-1-(pyridin-3-yl)azetidine-3-carboxamide] was tested, and the IC50 [1] was 56.6 nM and the IC50 [2] was 0.535 nM.
